In brackets after ≈: the same amount, converted by molar mass. Read-outs that look alike come from different tables or passages of the source.
Key:
[1] = system: Phytophthora capsici (Pc); assay: Growth inhibition assay of fungal pathogens, Pc; format: cell-based; details: 48 h
Procedure, shortened: (§1)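 Inhibition percentages reflect 48 h OD600 and visual scores relative to a 2% DMSO control. Test concentrations were 50, 10, 2 ppm or 2, 0.4, 0.08 ppm final, applied to spores in 17% V8 medium.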

Botrtyis cinerea (Bc) = assay: Growth inhibition assay of fungal pathogens, Bc; format: cell-based; details: 48 h, read-out: Concentration at 90% Inhibition Bc, Botrtyis cinerea
Procedure, shortened: as §1

Rhizoctonia solani (Rs) = assay: Growth inhibition assay of fungal pathogens, Rs; format: cell-based; details: 48 h
[2] = system: Fusarium virguliforme (Fv); assay: Growth inhibition assay of fungal pathogens, Fv; format: cell-based; details: 48 h
Procedure, shortened: as §1

Septoria tritici (St) = assay: Growth inhibition assay of fungal pathogens, St; format: cell-based; details: Zymoseptoria tritici, 48 h, read-out: Concentration at 90% Inhibition St, Septoria tritici
Procedure, shortened: as §1

[3] = system: Fusarium moniliforme (Fm); assay: Growth inhibition assay of fungal pathogens, Fm; format: cell-based; details: for Concentration at 90% Inhibition Fm: Fusarium moniliforme, growth inhibition at 48 hours vs 2% DMSO control; for IC90: Fusarium verticillioides, 48 h, read-out: Concentration at 90% Inhibition Fm
Procedure, shortened: as §1

C. parapsilosis = assay: Antifungal Activity Assay (broth microtiter MIC), C. parapsilosis; format: cell-based, Candida parapsilosis; details: Lodderomyces parapsilosis, ATCC22019, 48 h
Procedure, shortened: (§2)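 Broth microdilution per CLSI M27-A3 in RPMI 1640+MOPS, inoculum 2.5×10^3 CFU/mL final from overnight Sabouraud dextrose agar cultures at 35° C. Compounds diluted from DMSO stock to 128 μg/mL in water. MIC read visually versus growth control at 48 h.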

fungal (fACC2) = fungal (fACC2) (UniProt Q00955); details: read-out: fACC2 (in vitro ACC2 Inhibition Assay, IC50), ADP-Glo, 5 nM ACC2, 20 μM ATP, 20 μM acetyl-CoA
Chain of fungal (fACC2) (Q00955 whole entry): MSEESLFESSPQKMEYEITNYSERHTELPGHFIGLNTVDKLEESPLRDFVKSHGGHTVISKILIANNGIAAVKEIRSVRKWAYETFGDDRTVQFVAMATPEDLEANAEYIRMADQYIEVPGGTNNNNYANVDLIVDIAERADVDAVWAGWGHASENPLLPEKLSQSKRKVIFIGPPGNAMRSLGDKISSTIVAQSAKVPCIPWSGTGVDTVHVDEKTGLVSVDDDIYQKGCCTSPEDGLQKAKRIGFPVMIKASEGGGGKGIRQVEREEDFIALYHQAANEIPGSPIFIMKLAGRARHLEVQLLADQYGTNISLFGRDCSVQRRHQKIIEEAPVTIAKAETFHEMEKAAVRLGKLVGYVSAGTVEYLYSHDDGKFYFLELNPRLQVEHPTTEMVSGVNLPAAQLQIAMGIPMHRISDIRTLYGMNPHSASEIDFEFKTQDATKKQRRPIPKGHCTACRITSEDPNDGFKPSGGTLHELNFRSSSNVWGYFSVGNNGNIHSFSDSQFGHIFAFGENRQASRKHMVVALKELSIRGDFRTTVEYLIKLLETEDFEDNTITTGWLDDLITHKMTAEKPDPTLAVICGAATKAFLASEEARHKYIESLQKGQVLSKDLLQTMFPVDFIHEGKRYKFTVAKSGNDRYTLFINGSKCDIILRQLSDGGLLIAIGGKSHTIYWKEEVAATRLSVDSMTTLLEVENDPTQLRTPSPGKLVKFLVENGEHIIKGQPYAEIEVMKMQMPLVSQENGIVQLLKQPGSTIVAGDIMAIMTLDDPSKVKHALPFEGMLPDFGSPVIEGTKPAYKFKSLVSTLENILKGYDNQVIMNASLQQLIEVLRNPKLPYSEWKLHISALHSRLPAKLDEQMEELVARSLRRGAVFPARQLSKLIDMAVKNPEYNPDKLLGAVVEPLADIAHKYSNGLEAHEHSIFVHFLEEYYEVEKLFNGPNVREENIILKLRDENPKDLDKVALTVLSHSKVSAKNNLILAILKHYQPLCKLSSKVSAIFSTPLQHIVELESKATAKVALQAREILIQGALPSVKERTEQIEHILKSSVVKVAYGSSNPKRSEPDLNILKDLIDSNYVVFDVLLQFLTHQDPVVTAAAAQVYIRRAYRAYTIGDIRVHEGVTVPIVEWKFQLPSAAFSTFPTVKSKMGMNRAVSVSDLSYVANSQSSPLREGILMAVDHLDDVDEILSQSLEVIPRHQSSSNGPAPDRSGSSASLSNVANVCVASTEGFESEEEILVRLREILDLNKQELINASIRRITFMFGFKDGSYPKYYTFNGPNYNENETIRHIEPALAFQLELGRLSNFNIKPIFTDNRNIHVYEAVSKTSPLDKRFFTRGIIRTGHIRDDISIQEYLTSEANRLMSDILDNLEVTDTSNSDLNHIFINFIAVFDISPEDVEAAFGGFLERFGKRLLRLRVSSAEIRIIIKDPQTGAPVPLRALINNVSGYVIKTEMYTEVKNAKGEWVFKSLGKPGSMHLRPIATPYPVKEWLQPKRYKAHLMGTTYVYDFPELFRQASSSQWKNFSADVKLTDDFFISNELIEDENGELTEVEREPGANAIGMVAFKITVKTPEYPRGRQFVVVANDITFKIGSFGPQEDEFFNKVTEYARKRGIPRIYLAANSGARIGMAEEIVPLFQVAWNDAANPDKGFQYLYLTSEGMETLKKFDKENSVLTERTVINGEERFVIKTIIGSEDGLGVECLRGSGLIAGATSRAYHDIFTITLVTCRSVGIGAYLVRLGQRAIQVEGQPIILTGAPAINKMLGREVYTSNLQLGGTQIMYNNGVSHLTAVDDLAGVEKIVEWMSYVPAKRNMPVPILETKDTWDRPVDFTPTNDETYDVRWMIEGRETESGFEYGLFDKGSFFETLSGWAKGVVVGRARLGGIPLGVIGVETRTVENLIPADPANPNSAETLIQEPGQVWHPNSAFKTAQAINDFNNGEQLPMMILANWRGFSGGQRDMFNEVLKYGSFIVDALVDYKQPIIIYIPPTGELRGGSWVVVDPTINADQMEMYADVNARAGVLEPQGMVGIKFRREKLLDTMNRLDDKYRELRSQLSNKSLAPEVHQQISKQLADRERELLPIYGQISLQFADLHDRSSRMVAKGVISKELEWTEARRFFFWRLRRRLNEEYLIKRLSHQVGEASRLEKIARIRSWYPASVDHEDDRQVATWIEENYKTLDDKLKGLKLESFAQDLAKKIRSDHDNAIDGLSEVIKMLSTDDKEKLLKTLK

C. krusei = assay: Antifungal Activity Assay (broth microtiter MIC), C. krusei; format: cell-based, Candida krusei; details: Pichia kudriavzevii, ATCC6258, 48 h
Procedure, shortened: as §2

human (hACC2) = human (hACC2) (Homo sapiens, UniProt O00763); assay: In vitro ACC inhibition assay (ADP-Glo), hACC2; format: biochemical; details: 5 nM ACC2, 20 μM ATP, 20 μM acetyl-CoA
Chain of human (hACC2) (O00763 whole entry): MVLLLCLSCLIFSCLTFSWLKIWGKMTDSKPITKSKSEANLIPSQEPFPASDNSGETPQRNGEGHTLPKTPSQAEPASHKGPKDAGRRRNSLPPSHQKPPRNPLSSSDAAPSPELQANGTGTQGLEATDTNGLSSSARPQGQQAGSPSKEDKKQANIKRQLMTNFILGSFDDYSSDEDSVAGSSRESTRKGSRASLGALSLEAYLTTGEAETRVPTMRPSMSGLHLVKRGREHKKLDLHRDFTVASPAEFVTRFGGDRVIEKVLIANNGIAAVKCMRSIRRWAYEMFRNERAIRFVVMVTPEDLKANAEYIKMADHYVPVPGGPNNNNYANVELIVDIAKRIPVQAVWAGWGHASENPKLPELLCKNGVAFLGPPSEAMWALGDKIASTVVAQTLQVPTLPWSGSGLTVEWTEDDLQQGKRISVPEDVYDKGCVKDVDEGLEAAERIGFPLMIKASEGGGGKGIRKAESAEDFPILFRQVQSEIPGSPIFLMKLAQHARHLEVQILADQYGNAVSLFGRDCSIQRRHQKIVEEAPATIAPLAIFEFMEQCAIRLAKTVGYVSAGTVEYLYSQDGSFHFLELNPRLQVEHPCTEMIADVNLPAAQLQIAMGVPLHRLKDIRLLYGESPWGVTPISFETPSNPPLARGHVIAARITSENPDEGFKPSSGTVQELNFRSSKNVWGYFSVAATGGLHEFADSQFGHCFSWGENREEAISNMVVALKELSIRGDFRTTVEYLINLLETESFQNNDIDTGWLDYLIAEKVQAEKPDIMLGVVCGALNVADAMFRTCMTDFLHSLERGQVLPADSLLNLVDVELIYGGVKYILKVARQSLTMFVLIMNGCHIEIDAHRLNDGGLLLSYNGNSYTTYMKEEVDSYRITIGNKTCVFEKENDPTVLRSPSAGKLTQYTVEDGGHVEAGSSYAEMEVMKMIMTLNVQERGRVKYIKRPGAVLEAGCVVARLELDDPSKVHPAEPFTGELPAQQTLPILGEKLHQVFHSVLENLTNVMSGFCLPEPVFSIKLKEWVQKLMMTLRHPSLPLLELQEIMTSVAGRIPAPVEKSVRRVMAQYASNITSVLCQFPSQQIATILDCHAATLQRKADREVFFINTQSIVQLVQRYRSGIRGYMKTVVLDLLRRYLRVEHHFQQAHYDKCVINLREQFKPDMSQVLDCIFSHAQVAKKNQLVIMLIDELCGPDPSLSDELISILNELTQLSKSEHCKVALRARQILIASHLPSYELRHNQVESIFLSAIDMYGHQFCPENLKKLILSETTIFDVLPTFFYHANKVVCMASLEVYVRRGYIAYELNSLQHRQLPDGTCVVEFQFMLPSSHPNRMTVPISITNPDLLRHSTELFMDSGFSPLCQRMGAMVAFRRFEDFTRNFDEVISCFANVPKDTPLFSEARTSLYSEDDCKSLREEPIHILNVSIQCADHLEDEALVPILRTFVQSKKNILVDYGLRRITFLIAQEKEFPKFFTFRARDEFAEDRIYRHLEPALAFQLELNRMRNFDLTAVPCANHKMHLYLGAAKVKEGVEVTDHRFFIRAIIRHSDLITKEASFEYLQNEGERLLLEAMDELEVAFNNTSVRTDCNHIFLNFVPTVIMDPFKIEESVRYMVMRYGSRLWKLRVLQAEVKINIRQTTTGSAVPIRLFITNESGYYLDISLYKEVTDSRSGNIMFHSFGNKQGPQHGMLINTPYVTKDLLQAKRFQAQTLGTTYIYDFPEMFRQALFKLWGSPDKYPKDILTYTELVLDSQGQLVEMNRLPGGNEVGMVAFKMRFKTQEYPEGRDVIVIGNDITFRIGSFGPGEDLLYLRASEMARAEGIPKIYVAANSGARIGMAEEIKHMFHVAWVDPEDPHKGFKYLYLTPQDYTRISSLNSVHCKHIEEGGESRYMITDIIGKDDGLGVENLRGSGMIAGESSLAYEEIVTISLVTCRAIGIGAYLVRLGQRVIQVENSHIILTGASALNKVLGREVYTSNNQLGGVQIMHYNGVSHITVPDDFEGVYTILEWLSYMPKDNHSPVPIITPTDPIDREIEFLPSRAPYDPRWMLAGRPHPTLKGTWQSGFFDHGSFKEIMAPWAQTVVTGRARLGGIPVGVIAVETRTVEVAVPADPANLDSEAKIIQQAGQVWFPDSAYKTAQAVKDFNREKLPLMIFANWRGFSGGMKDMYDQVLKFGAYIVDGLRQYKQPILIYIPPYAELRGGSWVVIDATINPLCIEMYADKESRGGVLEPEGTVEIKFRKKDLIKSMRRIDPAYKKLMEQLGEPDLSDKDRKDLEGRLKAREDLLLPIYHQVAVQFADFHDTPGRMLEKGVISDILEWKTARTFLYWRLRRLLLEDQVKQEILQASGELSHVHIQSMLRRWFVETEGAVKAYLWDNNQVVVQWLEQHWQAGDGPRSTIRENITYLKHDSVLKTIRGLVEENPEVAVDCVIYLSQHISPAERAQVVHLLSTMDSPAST
Procedure: The detailed procedure is as follows. […] 10 μL ADP glo reagent was added. […] 20 μL kinase detection reagent was added.

[4] = read-out: Concentration at 90% Inhibition Pc, Phytophthora capsici, growth inhibition at 48 hours vs 2% DMSO control
[5] = read-out: Concentration at 90% Inhibition Pc, Phytophthora capsici, growth inhibition vs 2% DMSO control at 48 hours
[6] = growth inhibition at 48 hours vs 2% DMSO control
[7] = growth inhibition vs 2% DMSO control at 48 hours
[8] = read-out: Concentration at 90% Inhibition Rs, Rhizoctonia solani, mycelial plugs, growth inhibition at 48 hours vs 2% DMSO control
[9] = read-out: Concentration at 90% Inhibition Rs, Rhizoctonia solani, mycelial plugs, growth inhibition vs 2% DMSO control at 48 hours
[10] = read-out: Concentration at 90% Inhibition Fv, Fusarium virguliforme, growth inhibition at 48 hours vs 2% DMSO control
[11] = read-out: Concentration at 90% Inhibition Fv, Fusarium virguliforme, growth inhibition vs 2% DMSO control at 48 hours
[12] = read-out: MIC, C. parapsilosis ATCC 22019, Table 3b (additional results), 3 replicates, MIC recorded at 48 h
[13] = read-out: MIC, C. krusei ATCC 6258, Table 3b (additional results), 3 replicates, MIC recorded at 48 h

Row | SMILES | IC90 [1, 4] [µg/mL] | IC90 [1, 5] [µg/mL] | IC90 (Botrtyis cinerea (Bc); [6]) [µg/mL] | IC90 (Botrtyis cinerea (Bc); [7]) [µg/mL] | IC90 (Rhizoctonia solani (Rs); [8]) [µg/mL] | IC90 (Rhizoctonia solani (Rs); [9]) [µg/mL] | IC90 [2, 10] [µg/mL] | IC90 [2, 11] [µg/mL] | IC90 (Septoria tritici (St); [6]) [µg/mL] | IC90 (Septoria tritici (St); [7]) [µg/mL] | Concentration at 90% Inhibition Fm [3] | IC90 [3] [µg/mL] | MIC (C. parapsilosis; [12]) [µg/mL] | IC50 (fungal (fACC2); Table 2a) [nM] | IC50 (fungal (fACC2); Table 2b, additional results) [nM] | MIC (C. krusei; [13]) [µg/mL] | IC50 (human (hACC2); Table 2a) [nM] | IC50 (human (hACC2); Table 2b, additional results) [nM] | MIC (C. parapsilosis; read-out: MIC, C. parapsilosis ATCC 22019, Table 3a, 3 replicates, MIC recorded at 48 h) [µg/mL] | MIC (C. krusei; read-out: MIC, C. krusei ATCC 6258, Table 3a, 3 replicates, MIC recorded at 48 h) [µg/mL]
1 | COCCCO[C@@H](Cn1c(=O)n(C(C)(C)C(=O)NC(C)C)c(=O)c2c(C)c(-n3nccn3)sc21)c1cc(F)ccc1OC [Compound I-69, (R)-2-(1-(2-(5-fluoro-2-methoxyphenyl)-2-(3-methoxy-propoxy)ethyl)-5-methyl-2,4-dioxo-6-(2H-1,2,3-triazol-2-yl)-1,4-dihydrothieno[2,3-d]pyrimidin-3(2H)-yl)-N-isopropyl-2-methylpropanamide] | > 50 | > 50 | 0.4 (≈ 0.649 µM) | 0.4 (≈ 0.649 µM) | 0.4 (≈ 0.649 µM) | 0.4 (≈ 0.649 µM) | 0.08 (≈ 0.13 µM) | 0.08 (≈ 0.13 µM) | 10 (≈ 16.2 µM) | > 50 | AA (compound concentration of 0.08 ppm at 90% inhibition of fungal pathogens) | 0.08 (≈ 0.13 µM) | 0.25 to 1 (≈ 0.405 to 1.62 µM) | 0.4 to 1 | 0.3 to 1 | 0.25 to 1 (≈ 0.405 to 1.62 µM) | 5 to 10 | 5 to 10 | – | –
2 | C=CCNC(=O)C(C)(C)n1c(=O)c2c(C)c(-n3nccn3)sc2n(C[C@H](OC2CCOCC2)c2cc(F)ccc2OC)c1=O [Compound I-70, (R)—N-allyl-2-(1-(2-(5-fluoro-2-methoxyphenyl)-2-((tetrahydro-2H-pyran-4-yl)oxy)ethyl)-5-methyl-2,4-dioxo-6-(2H-1,2,3-triazol-2-yl)-1,4-dihydrothieno[2,3-d]pyrimidin-3(2H)-yl)-2-methylpropanamide] | > 50 | > 50 | 2 (≈ 3.19 µM) | 2 (≈ 3.19 µM) | 0.4 (≈ 0.638 µM) | 0.4 (≈ 0.638 µM) | 0.4 (≈ 0.638 µM) | 0.4 (≈ 0.638 µM) | > 50 | > 50 | AA (compound concentration of 0.08 ppm at 90% inhibition of fungal pathogens) | 0.08 (≈ 0.128 µM) | 1.01 to 2 (≈ 1.61 to 3.19 µM) | 1 to 5 | 1 to 5 | 0.25 to 1 (≈ 0.399 to 1.6 µM) | 1 to 5 | 1 to 5 | 0.25 to 1 (≈ 0.399 to 1.6 µM) | 0.25 to 1 (≈ 0.399 to 1.6 µM)
